Columns and labels:
Fkbp13 = Fkbp13 levels in HEK293 cells transfected with Fkbp13 and Psn (Western blot); format: cell-based, Drosophila; settings: treated for 1-24 hours
Method: HEK293 cells were maintained at 37° C. and 5% CO2 in α-minimal essential medium (Hyclone) supplemented with 10% heat-inactivated fetal bovine serum and plated 24 hours before transfection. For each 10 cm tissue culture dish, 12-16 μg cDNA was used. HEK293 cells were transiently transfected with plasmids encoding Drosophila Rya-r44f, Fkbp13, or psn using calcium phosphate precipitation. The cells were harvested 40-42 hours afer transfection.
Protein quantification, SDS-polyacrylamide gel electrophoresis (5-12% or 8-12% gradient gel, or 10% SDS-PAGE) and immunoblot analysis were carried out as described previously (Guo et al. Journal of Cell Science 113:3499-3508 2000) using the monoclonal antibodies, anti-β-actin and anti-FLAG (Sigma), anti-GFP (Santa Cruz Biotechnology), anti-HA (12c-A5, Roche), anti-β-tubulin (Developmental Studies Hybridoma Bank), anti-Xpress and anti-V5 (Invitrogen) and a polyclonal anti-GFP (Santa Cruz Biotechnology). Microsomal fractions were prepared from cells using a detergent-free protocol. […]
(§1) To determine the effect of drug treatment on Psn stability, HEK293 cells were transiently co-transfected with psn and Fkbp13 constructs. 24 hours after transfection, 100 mm dishes of transfected HEK293 cells were treated with 5 μM FK506 (CALBIOCHEM), 1 μM Rapamycin (CALBIOCHEM) or DMSO (control), harvested at various time points and analyzed by Western blotting techniques. […]

Actin = Actin levels in HEK293 cells transfected with Fkbp13 and Psn (Western blot); format: cell-based; settings: treated for 1-24 hours
Method: Protein quantification, SDS-polyacrylamide gel electrophoresis (5-12% or 8-12% gradient gel, or 10% SDS-PAGE) and immunoblot analysis were carried out as described previously (Guo et al. Journal of Cell Science 113:3499-3508 2000) using the monoclonal antibodies, anti-β-actin and anti-FLAG (Sigma), anti-GFP (Santa Cruz Biotechnology), anti-HA (12c-A5, Roche), anti-β-tubulin (Developmental Studies Hybridoma Bank), anti-Xpress and anti-V5 (Invitrogen) and a polyclonal anti-GFP (Santa Cruz Biotechnology). Microsomal fractions were prepared from cells using a detergent-free protocol. All steps were performed at <4° C. Cell pellets were resuspended in 300 μl hypo-osmotic buffer (20 mM Tris/HCl, pH 7.5) supplemented with complete protease inhibitor (Roche), homogenized through a 27G needle and sonicated. Nuclei were removed by centrifugation (1200 g, 25 minutes) and the post-nuclear supernatant (containing membrane and soluble fractions) was denatured for 5 minutes at 100° C. in SDS-PAGE sample buffer. […]
as §1

human PS-1 = assay: 35S-methionine pulse-chase of PS1 stability in Cos-7 cells; format: cell-based; settings: Cos-7 cells transfected with human PS-1, in the presence of FK506; without FK506 3.5±0.2 h
Method: In order to confirm that FK506 was affecting the stability of PS1 a pulse-chase of ^35S-methionine was performed and the amount of PS1 remaining after various chase periods was measured by immunoprecipitation and autoradiography.
Pulse-chase labeling of cells was performed using TRAN ^35S-LABEL™ Metabolic Labeling Reagent (ICN). Cos-7 cells were transiently transfected with human PS-1. After 48 hours, cells were washed with PBS and then starved in the presence of methionine and cysteine free DMEM (Invitrogen) containing 10% dialyzed fetal bovine serum for 1 hour at 37° C. Cells were then incubated with [^35S] methionine (400 μCi/ml) in the presence or absence of FK506 for an additional 2 hours. The cells were then washed with 10 ml of PBS twice and chased with DMEM containing the indicated reagents for various times. Cells were then harvested and lysed in IP buffer and TCA precipitated to quantify the incorporation of ^35S-methionine. Equal amounts of microsomal fractions from radioactive cells were then incubated with 2 μg of anti-human PS1. Subsequently, […] of protein A agarose beads (Invitrogen) were added to the IP reactions and rotated for 2 hours at 4° C. The beads were then washed 4 times with IP washing buffer, denatured in 2× SDS-PAGE sample buffer and run on 12% SDS-PAGE.

APH-1 = APH-1 protein levels in transfected Drosophilia S2 cells (Western analysis); format: cell-based; settings: 50 μM FK506 over a 24 hour period
Text: (§2) In order to determine if Fkbp13 can also affect the stability of other components of the γ-secretase complex, Drosophilia S2 cells were transfected with tagged constructs expressing APH-1, PEN-2 or Nct and then examined for the effects of FK506 on protein levels.
(§3) cDNA's encoding APH-1, PEN-2 and Nct were subcloned into pAc5.1/V5-HisA or pIB/V5-His TOPO and transiently transfected into Drosophilia S2 cells using cellfectin according to the manufacturer's protocol (Invitrogen). Cells were collected between 24-48 hours for Western analysis using the following antibodies: monoclonal anti-V5 1:5000(Invitrogen), monoclonal anti-HA 1:2000(Roche), monoclonal anti-FLAG M2 1:5000(Sigma) and monoclonal anti-β-tubulin 1:1000 (DSHB).
(§4) In contrast, no effect was observed on the levels of either APH-1 or Nct (FIG. 4A). […] Drosophilia S2 cells were transfected with tagged versions of APH-1, PEN-2 or Nct and treated with 50 μM FK506 over a 24 hour period. No effect was observed on the levels of APH-1, Nct or β-tubulin control. Similarly, no effect was observed using either DMSO (control) or the known γ-secretase inhibitor, DAPT.

Nct = Nct protein levels in transfected Drosophilia S2 cells (Western analysis); format: cell-based; settings: 50 μM FK506 over a 24 hour period
Text: as §2, §3, §4

γ-secretase = target: T1, γ-secretase (Homo sapiens, UniProt P49768); assay: Aβ1-40 sandwich ELISA in Cos-7 cells stably expressing APP C99 and transfected with human PS1; format: cell-based
T1 construct: expressed in transfected cells; host or cells: Cos-7 stably expressing APP C99 (pCEP4-SPA4CT-DA)
Method: To determine the effect of drug treatment on Psn stability, HEK293 cells were transiently co-transfected with psn and Fkbp13 constructs. 24 hours after transfection, 100 mm dishes of transfected HEK293 cells were treated with 5 μM FK506 (CALBIOCHEM), 1 μM Rapamycin (CALBIOCHEM) or DMSO (control), harvested at various time points and analyzed by Western blotting techniques. To measure Aβ40, Cos-7 cells were transfected with pCEP4-SPA4CT-DA (gift from Dr. Gunter Merdes, ZMBH, University of Heidelberg) that contains an APP^C99 cDNA using lipofectin (Gibco) according to the manufacturers protocol. Cells stably expressing APP^C99 were selected using 300 μg/ml hygromycin and maintained in DMEM medium containing 10% FBS, […] penicillin-streptomycin and 100 μg/ml hygromycin. These cells were then transiently transfected with plasmids carrying human PS1. 48 hours after transfection, cells were starved in serum-free DMEM medium for 2 hours, then treated with 1 μm of the γ-secretase inhibitor DAPT or 0.5 μm of the Fkbp13 inhibitor rapamycin or FK506 respectively, in DMEM medium containing 5% FBS o/n. Cells then were harvested and lysed and the conditioned lysates were used to measure Aβ1-40 by sandwich ELISA as described in (Yan et al. Nature 402:533-537 1999)using 6E10 (Senetek) as the capture antibody and the polyclonal Pan-β-Amyloid (Oncogene) for detection of Aβ40. […]

PEN-2 = PEN-2 protein levels in transfected Drosophilia S2 cells (Western analysis); format: cell-based; settings: concentration not given
Text: as §2, §3, §4

decrease in the levels of β-amyloid peptide (γ-secretase; APP C99 + human PS1, 0.5 μm FK506 o/n, vs untreated or DMSO treated controls) [%]	β-amyloid peptide production (in words) (γ-secretase; APP C99 + human PS1, 1 μm DAPT or 0.5 μm rapamycin o/n)	SMILES	levels of Fkbp13 (Fkbp13)	levels of Actin (Actin)	PS1 half-life (human PS-1) [h]	levels of APH-1 (APH-1)	levels of Nct (Nct)	effect of DAPT on protein levels (PEN-2) in S2 cells (PEN-2)
80		C=CC[C@@H]1/C=C(\C)C[C@H](C)C[C@H](OC)[C@H]2O[C@@](O)(C(=O)C(=O)N3CCCC[C@H]3C(=O)O[C@H](/C(C)=C/[C@@H]3CC[C@@H](O)[C@H](OC)C3)[C@H](C)[C@@H](O)CC1=O)[C@H](C)C[C@@H]2OC [FK506]	no effect	no effect	1.25 ± 0.3	no effect	no effect	
	comparable	C[C@H](NC(=O)Cc1cc(F)cc(F)c1)C(=O)N[C@H](C(=O)OC(C)(C)C)c1ccccc1 [DAPT]						no effect
